Source: the supplement of paper PMC10307832

Assays:
Test in all cases: relative viability (nuclei count vs DMSO), 5 days (fraction); higher = more cells survive
NCI-H2347 = tested on: NCI-H2347
Outline: (§1)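 Five library-drug doses in √10 steps were combined with a fixed anchor-drug dose, or a single drug was given alone, by pin tool to lung cancer cell lines in 1536-well plates the day after seeding. Nuclei were stained and counted after 5 days. Relative viability is the nuclei count in treated wells over that in vehicle wells, taken as the median of duplicate plates.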

RERF-LC-KJ = tested on: RERF-LC-KJ
Outline: as §1

PC-14 = tested on: PC-14
Outline: as §1

NCI-H2087 = tested on: NCI-H2087
Outline: as §1

201T = tested on: 201T
Outline: as §1

NCI-H2126 = tested on: NCI-H2126
Outline: as §1

COR-L 105 = tested on: COR-L 105
Outline: as §1

NCI-H1666 = tested on: NCI-H1666
Outline: as §1

NCI-H2405 = tested on: NCI-H2405
Outline: as §1

NCI-H1915 = tested on: NCI-H1915
Outline: as §1

NCI-H647 = tested on: NCI-H647
Outline: as §1

H3255 = tested on: H3255
Outline: as §1

NCI-H650 = tested on: NCI-H650
Outline: as §1

NCI-H23 = tested on: NCI-H23
Outline: as §1

NCI-H661 = tested on: NCI-H661
Outline: as §1

HCC-78 = tested on: HCC-78
Outline: as §1

EPLC-272H = tested on: EPLC-272H
Outline: as §1

HCC-827 = tested on: HCC-827
Outline: as §1

LCLC-97TM1 = tested on: LCLC-97TM1
Outline: as §1

NCI-H520 = tested on: NCI-H520
Outline: as §1

LC-2-ad = tested on: LC-2-ad
Outline: as §1

COc1nc(C)cnc1NS(=O)(=O)c1cccnc1-c1ccc(-c2nnco2)cc1 [Zibotentan] + Cc1nc(NC(=O)N2CCC[C@H]2C(N)=O)sc1-c1ccnc(C(C)(C)C(F)(F)F)c1 [Alpelisib] (partner 2 µM)
relative viability (NCI-H2347; first compound 0.08 µM): 1.15
relative viability (NCI-H2347; first compound 0.253 µM): 1.04
relative viability (NCI-H2347; first compound 0.8 µM): 1.09
relative viability (NCI-H2347; first compound 2.53 µM): 1.08
relative viability (RERF-LC-KJ; first compound 0.08 µM): 0.865
relative viability (RERF-LC-KJ; first compound 0.253 µM): 0.898
relative viability (RERF-LC-KJ; first compound 0.8 µM): 0.826
relative viability (RERF-LC-KJ; first compound 2.53 µM): 0.83
relative viability (PC-14; first compound 0.08 µM): 0.98
relative viability (PC-14; first compound 0.253 µM): 0.872
relative viability (PC-14; first compound 0.8 µM): 1.06
relative viability (PC-14; first compound 2.53 µM): 0.944
relative viability (NCI-H2087; first compound 0.08 µM): 1.06
relative viability (NCI-H2087; first compound 0.253 µM): 1.13
relative viability (NCI-H2087; first compound 0.8 µM): 1.03
relative viability (NCI-H2087; first compound 2.53 µM): 1.05
relative viability (201T; first compound 0.08 µM): 1.05
relative viability (201T; first compound 0.253 µM): 0.993
relative viability (201T; first compound 0.8 µM): 1.1
relative viability (201T; first compound 2.53 µM): 1.11
relative viability (NCI-H2126; first compound 0.08 µM): 0.827
relative viability (NCI-H2126; first compound 0.253 µM): 0.755
relative viability (NCI-H2126; first compound 0.8 µM): 0.726
relative viability (NCI-H2126; first compound 2.53 µM): 0.762
relative viability (COR-L 105; first compound 0.08 µM): 1.13
relative viability (COR-L 105; first compound 0.253 µM): 0.892
relative viability (COR-L 105; first compound 0.8 µM): 1.21
relative viability (COR-L 105; first compound 2.53 µM): 0.93
relative viability (NCI-H1666; first compound 0.08 µM): 1.12
relative viability (NCI-H1666; first compound 0.253 µM): 0.724
relative viability (NCI-H1666; first compound 0.8 µM): 1.18
relative viability (NCI-H1666; first compound 2.53 µM): 0.993
relative viability (NCI-H2405; first compound 0.08 µM): 0.787
relative viability (NCI-H2405; first compound 0.253 µM): 0.65
relative viability (NCI-H2405; first compound 0.8 µM): 0.745
relative viability (NCI-H2405; first compound 2.53 µM): 0.948
relative viability (NCI-H1915; first compound 0.08 µM): 1.14
relative viability (NCI-H1915; first compound 0.253 µM): 1.1
relative viability (NCI-H1915; first compound 0.8 µM): 1.09
relative viability (NCI-H1915; first compound 2.53 µM): 1.03
relative viability (NCI-H647; first compound 0.08 µM): 1.29
relative viability (NCI-H647; first compound 0.253 µM): 0.92
relative viability (NCI-H647; first compound 0.8 µM): 1.28
relative viability (NCI-H647; first compound 2.53 µM): 1.24
relative viability (H3255; first compound 0.08 µM): 0.712
relative viability (H3255; first compound 0.253 µM): 0.698
relative viability (H3255; first compound 0.8 µM): 0.672
relative viability (H3255; first compound 2.53 µM): 0.727
relative viability (NCI-H650; first compound 0.08 µM): 1.13
relative viability (NCI-H650; first compound 0.253 µM): 1.06
relative viability (NCI-H650; first compound 0.8 µM): 1.03
relative viability (NCI-H650; first compound 2.53 µM): 1.16
relative viability (NCI-H23; first compound 0.08 µM): 0.679
relative viability (NCI-H23; first compound 0.253 µM): 0.7
relative viability (NCI-H23; first compound 0.8 µM): 0.681
relative viability (NCI-H23; first compound 2.53 µM): 0.726
relative viability (NCI-H661; first compound 0.08 µM): 0.717
relative viability (NCI-H661; first compound 0.253 µM): 0.49
relative viability (NCI-H661; first compound 0.8 µM): 0.569
relative viability (NCI-H661; first compound 2.53 µM): 0.578
relative viability (HCC-78; first compound 0.08 µM): 0.342
relative viability (HCC-78; first compound 0.253 µM): 0.342
relative viability (HCC-78; first compound 0.8 µM): 0.23
relative viability (HCC-78; first compound 2.53 µM): 0.374
relative viability (EPLC-272H; first compound 0.08 µM): 0.805
relative viability (EPLC-272H; first compound 0.253 µM): 0.908
relative viability (EPLC-272H; first compound 0.8 µM): 0.979
relative viability (EPLC-272H; first compound 2.53 µM): 0.943
relative viability (HCC-827; first compound 0.08 µM): 1.01
relative viability (HCC-827; first compound 0.253 µM): 1.07
relative viability (HCC-827; first compound 0.8 µM): 0.808
relative viability (HCC-827; first compound 2.53 µM): 0.975
relative viability (LCLC-97TM1; first compound 0.08 µM): 0.309
relative viability (LCLC-97TM1; first compound 0.253 µM): 0.238
relative viability (LCLC-97TM1; first compound 0.8 µM): 0.183
relative viability (LCLC-97TM1; first compound 2.53 µM): 0.264
relative viability (NCI-H520; first compound 0.08 µM): 0.928
relative viability (NCI-H520; first compound 0.253 µM): 0.848
relative viability (NCI-H520; first compound 0.8 µM): 0.768
relative viability (NCI-H520; first compound 2.53 µM): 0.972
relative viability (LC-2-ad; first compound 0.08 µM): 0.852
relative viability (LC-2-ad; first compound 0.253 µM): 0.869
relative viability (LC-2-ad; first compound 0.8 µM): 0.92
relative viability (LC-2-ad; first compound 2.53 µM): 1.03
